Laboratory results as given in US12673945B2, “3-((8-((1H-pyrazol-4-yl)amino)imidazo[1,2-a]pyridin-3-yl)ethinyl)-n-phenylbenzamide derivative, method for preparing same, and pharmaceutical composition containing same as active ingredient for prevention or treatment of cancer” (DAEGU-GYEONGBUK MEDICAL INNOVATION FOUNDATION, priority 2020, dated 2026).

Key:
Type in all cases: cell-based
[1] = test system: T315I-KOPM28 cells; experiment: human CML cell proliferation inhibition; conditions: 72 hours, Cell Counting Kit-8
Method: (§1) In order to evaluate the therapeutic effect of the compound according to the present invention on chronic myelogenous leukemia (CML), the following experiment was performed, and the results are shown in Table 6 below. Inhibitory activity to Bcr-Abl kinase was evaluated through the experiment using TCCS and KOPM28 cells, and inhibitory activity to T315I-Bcr-Abl kinase was evaluated through the experiment using T315I-TCCS and T315I-KOPM28 cells.
(§2) Human chronic myelogenous leukemia (CML) cells used in the experiment were TCCS, T315I-TCCS, KOPM28 and T315I-KOPM28, and the four types of cells were provided by University of Yamanashi.
(§3) Four types of human CML cells were each seeded in 96-well plates at the density of 1×10^4/90 μL/well. A culture solution containing 9 concentrations (0.000256 to 100 μM) of each example compound serially diluted in 5 folds or DMSO (control) were added to the plate (10 μL/well) to a final concentration of 0 to 10 μM. The plate was incubated in a 37° C. CO2 incubator for 72 hours.
(§4) After incubation for 72 hours, the plate treated with the compound was treated with Cell Counting Kit-8 (Dojindo Molecular Technologies, Inc) solution at the concentration of 10 μL/well, and then mixed well. Then, the plate was incubated in a CO2 incubator at 37° C. for 2 hours, and absorbance at 450 nm was measured with a microplate reader. Data were expressed as percentage compared to vehicle treated cells and GI50 values were calculated using GraphPad Prism 8.0 (GraphPad software Inc., San Diego).

[2] = test system: T315I-TCCS cells; experiment: human CML cell proliferation inhibition; conditions: 72 hours, Cell Counting Kit-8
Method: as §1, §2, §3, §4

[3] = test system: KOPM28 cells; experiment: human CML cell proliferation inhibition; conditions: 72 hours, Cell Counting Kit-8
Method: as §1, §2, §3, §4

[4] = test system: TCCS cells; experiment: human CML cell proliferation inhibition; conditions: 72 hours, Cell Counting Kit-8
Method: as §1, §2, §3, §4

[5] = test system: T315I-Bcr-Abl (Ba/F3); experiment: Ba/F3 cell proliferation inhibition; conditions: BaF3; 72 hours, Cell Counting Kit-8
Method: as §3, with “[…] lymphocyte cells, Parental (Ba/F3) and T315I-Bcr-Abl (Ba/F3)” for “Four types of human CML cells”, “were” for “were each”, “(0.015” for “(0.000256”, “3” for “5”, “[…])” for “μL/well)”
as §4, with “5.0” for “8.0”, “Diego) […].” for “Diego).”

[6] = test system: Parental (Ba/F3); experiment: Ba/F3 cell proliferation inhibition; conditions: BaF3; 72 hours, Cell Counting Kit-8
Method: as §3, with “[…] lymphocyte cells, Parental (Ba/F3) and T315I-Bcr-Abl (Ba/F3)” for “Four types of human CML cells”, “were” for “were each”, “(0.015” for “(0.000256”, “3” for “5”, “[…])” for “μL/well)”
as §4, with “5.0” for “8.0”, “Diego) […].” for “Diego).”

SMILES	GI50 [5] [nM]	GI50 [1] [nM]	GI50 [2] [nM]	GI50 [3] [nM]	GI50 [4] [nM]	GI50 [6] [nM]
Cc1cc(F)c(C(=O)Nc2ccc(CN3CCN(S(C)(=O)=O)CC3)c(C(C)(C)C#N)c2)cc1C#Cc1cnc2c(Nc3cnn(C)c3)cccn12 [Example 45, N-(3-(2-cyanopropan-2-yl)-4-((4-(methylsulfonyl)piperazin-1-yl)methyl)phenyl)-2-fluoro-4-methyl-5-((8-((1-methyl-1H-pyrazol-4-yl)amino)imidazo[1,2-a]pyridin-3-yl)ethynyl)benzamide]	500 to 5000	> 100	> 100	< 10	< 10	> 5000
Cc1cc(F)c(C(=O)Nc2cc(CN3CCN(C)C(=O)C3)cc(C(C)(C)C#N)c2)cc1C#Cc1cnc2c(Nc3cn[nH]c3)cccn12 [Example 88, 5-((8-((1H-pyrazol-4-yl)amino)imidazo[1,2-a]pyridin-3-yl)ethynyl)-N-(3-(2-cyanopropan-2-yl)-5-((4-methyl-3-oxopiperazin-1-yl)methyl)phenyl)-2-fluoro-4-methylbenzamide]	50 to 500	> 100	> 100	< 10	< 10	500 to 5000
Cc1cc(Cl)c(C(=O)Nc2cc(CN3CCN(CCO)CC3)cc(C(C)(C)C#N)c2)cc1C#Cc1cnc2c(Nc3cnn(C)c3)cccn12 [Example 16, 2-chloro-N-(3-(2-cyanopropan-2-yl)-5-((4-(2-hydroxyethyl)piperazin-1-yl)methyl)phenyl)-4-methyl-5-((8-((1-methyl-1H-pyrazol-4-yl)amino)imidazo[1,2-a]pyridin-3-yl)ethynyl)benzamide]	50 to 500	100	100	< 10	< 10	> 5000
Cc1cc(F)c(C(=O)Nc2cc(-c3cccnc3)cc(C(F)(F)F)c2)cc1C#Cc1cnc2c(Nc3cnn(C)c3)cccn12 [Example 53, 2-fluoro-4-methyl-5-((8-((1-methyl-1H-pyrazol-4-yl)amino)imidazo[1,2-a]pyridin-3-yl)ethynyl)-N-(3-(pyridin-3-yl)-5-(trifluoromethyl)phenyl)benzamide]	50 to 500	> 100	100	< 10	< 10	> 5000
Cc1cc(F)c(C(=O)Nc2ccc(CN3CCN(C)C(=O)C3)c(C(C)(C)C#N)c2)cc1C#Cc1cnc2c(Nc3cnn(C)c3)cccn12 [Example 44, N-(3-(2-cyanopropan-2-yl)-4-((4-methyl-3-oxopiperazin-1-yl)methyl)phenyl)-2-fluoro-4-methyl-5-((8-((1-methyl-1H-pyrazol-4-yl)amino)imidazo[1,2-a]pyridin-3-yl)ethynyl)benzamide]	50 to 500	> 100	> 100	< 10	< 10	500 to 5000
Cc1cc(F)c(C(=O)Nc2cc(CN3CCN(S(C)(=O)=O)CC3)cc(C(C)(C)C#N)c2)cc1C#Cc1cnc2c(Nc3cn[nH]c3)cccn12 [Example 87, 5-((8-((1H-pyrazol-4-yl)amino)imidazo[1,2-a]pyridin-3-yl)ethynyl)-N-(3-(2-cyanopropan-2-yl)-5-((4-(methylsulfonyl)piperazin-1-yl)methyl)phenyl)-2-fluoro-4-methylbenzamide]	50 to 500	> 100	100	< 10	< 10	> 5000
Cc1cn(-c2cc(NC(=O)c3cc(C#Cc4cnc5c(Nc6cn[nH]c6)cccn45)c(C)cc3F)cc(C(C)(C)C#N)c2)cn1 [Example 75, 5-((8-((1H-pyrazol-4-yl)amino)imidazo[1,2-a]pyridin-3-yl)ethynyl)-N-(3-(2-cyanopropan-2-yl)-5-(4-methyl-1H-imidazol-1-yl)phenyl)-2-fluoro-4-methylbenzamide]	< 50	100	100	< 10	< 10	> 5000

Now from value to compound, other results behind:

GI50 [5] [nM]	SMILES	GI50 [1] [nM]	GI50 [2] [nM]	GI50 [3] [nM]	GI50 [4] [nM]	GI50 [6] [nM]
50 to 500	Cc1cc(F)c(C(=O)Nc2cc(CN3CCN(C)CC3)cc(C(F)(F)F)c2)cc1C#Cc1cnc2c(Nc3cn[nH]c3)cccn12 [Example 104, 5-((8-((1H-pyrazol-4-yl)amino)imidazo[1,2-a]pyridin-3-yl)ethynyl)-2-fluoro-4-methyl-N-(3-((4-methylpiperazin-1-yl)methyl)-5-(trifluoromethyl)phenyl)benzamide]	> 100	100	< 10	< 10	500 to 5000
50 to 500	Cc1cc(F)c(C(=O)Nc2cc(OCCCN(C)C)cc(C(F)(F)F)c2)cc1C#Cc1cnc2c(Nc3cn[nH]c3)cccn12 [Example 103, 5-((8-((1H-pyrazol-4-yl)amino)imidazo[1,2-a]pyridin-3-yl)ethynyl)-N-(3-(3-(dimethylamino)propoxy)-5-(trifluoromethyl)phenyl)-2-fluoro-4-methylbenzamide]	> 100	100	< 10	< 10	> 5000
< 50	Cc1cc(F)c(C(=O)Nc2cc(Oc3ccncc3)cc(C(F)(F)F)c2)cc1C#Cc1cnc2c(Nc3cn[nH]c3)cccn12 [Example 101, 5-((8-((1H-pyrazol-4-yl)amino)imidazo[1,2-a]pyridin-3-yl)ethynyl)-2-fluoro-4-methyl-N-(3-(pyridin-4-yloxy)-5-(trifluoromethyl)phenyl)benzamide]	100	< 10	< 10	< 10	> 5000
< 50	Cc1cc(F)c(C(=O)Nc2ccc(CN3CCN(CCO)CC3)c(C(C)(C)C#N)c2)cc1C#Cc1cnc2c(Nc3cn[nH]c3)cccn12 [Example 92, 5-((8-((1H-pyrazol-4-yl)amino)imidazo[1,2-a]pyridin-3-yl)ethynyl)-N-(3-(2-cyanopropan-2-yl)-4-((4-(2-hydroxyethyl)piperazin-1-yl)methyl)phenyl)-2-fluoro-4-methylbenzamide]	100	100	< 10	< 10	500 to 5000
50 to 500	Cc1cc(F)c(C(=O)Nc2cc(CN3CCN(CCO)CC3)cc(C(F)(F)F)c2)cc1C#Cc1cnc2c(Nc3cn[nH]c3)cccn12 [Example 106, 5-((8-((1H-pyrazol-4-yl)amino)imidazo[1,2-a]pyridin-3-yl)ethynyl)-2-fluoro-N-(3-((4-(2-hydroxyethyl)piperazin-1-yl)methyl)-5-(trifluoromethyl)phenyl)-4-methylbenzamide]	> 100	100	< 10	< 10	> 5000
50 to 500	Cc1cc(F)c(C(=O)Nc2cc(-c3cnn(C)c3)cc(C(F)(F)F)c2)cc1C#Cc1cnc2c(Nc3cn[nH]c3)cccn12 [Example 96, 5-((8-((1H-pyrazol-4-yl)amino)imidazo[1,2-a]pyridin-3-yl)ethynyl)-2-fluoro-4-methyl-N-(3-(1-methyl-1H-pyrazol-4-yl)-5-(trifluoromethyl)phenyl)benzamide]	> 100	> 100	< 10	100	> 5000
